Laboratory results published in patent US20240366577A1, “CONTROLLED LONG-TERM DRUG DELIVERY AND METHODS THEREOF” (THE JOHNS HOPKINS UNIVERSITY, priority 2021, published 2024).

Legend:
[1] = tested on: endothelial cell marker Cd31; assay: qPCR of retrieved tumors: Cd31; assay type: in vivo, BALB/c mice; settings: crystals, compared to daily liquid bolus drug treatment; tumors at end of study
Experimental: To determine the anti-angiogenic efficacy of each sorafenib treatment group, qPCR gene expression analysis was performed on retrieved tumors at the conclusion of the study. In particular, analysis for levels of endothelial cell marker Cd31, vascular endothelial-cadherin (VE-Cdh), smooth muscle pericyte marker alpha Smooth Muscle actin (aSMact), and stem/progenitor cell marker Cd34 were conducted, as shown in FIG. 3F.
1 mL of TRIzol reagent (Cat#15596018, ThermoFisher) was added to 100 mg samples of tumor tissue and broken down with a power homogenizer (Polytron/VWR). Homogenized samples were incubated at room temperature for 5 min for complete nucleoprotein dissociation, then 0.2 ml of chloroform (Sigma) was added to each sample. Samples were shaken vigorously for 15 seconds and incubated at room temperature for 3 min before centrifuging at 12,000 g for 15 min at 4° C. The uppermost supernatant layer was pipetted into a 1.7 mL Eppendorf tube, with the remaining interphase and organic layer discarded. 0.5 mL of isopropanol (Sigma) was added to each sample, and then samples were incubated for 10 min. Samples were centrifuged at 12,000 g for 10 min at 4° C. […] Depending on size of resultant pellet, pellets were resuspended in 50-100 μL, and nucleic acid concentration was measured using a NanoDrop 2000 spectrophotometer (ThermoFisher). […]

[2] = tested on: 4T1-luciferase tumors; assay: 4T1-luciferase tumor IVIS bioluminescence, co-injection with crystals; assay type: in vivo, BALB/c mice; settings: 2 mg of 150-200 μm crystals co-injected with 4T1-luciferase cells; up to 20 days; vs PBS controls; p<0.05
Experimental: To determine long-term potential of tunable, slow-releasing crystal-formulated sorafenib, efficacy of a single injection of the injectable drug composition was measured in a syngeneic model of triple negative breast cancer (TNBC): 4T1 tumors grown orthotopically in the mammary fat pad of BALB/c mice. For in vivo testing, mice were anesthetized with inhaled isofluorane and inoculated with 4T1, also referred to as 4T1-Luciferase, Luc, cancer cells, injected into the right inguinal mammary fat pad, as shown in FIG. 3A. […] Tumor presence was quantified over time up to 20 days post injection in both cases based on measured luminescence in equivalent regions of interest (ROIs, white circles), depicted in FIG. 3C. […]
4T1 or 4T1-luc2 cells were trypsinized using 0.25% Trypsin-EDTA, then diluted with the appropriate complete culture media and spun in a centrifuge at 300 g for 5 min. […] Cells were counted with a Countess automated cell counter. […] Tumors were measured externally using a digital caliper, and volume was calculated (!″* (length * height) *−length * height). […]
4T1-Luc2 tumor-injected mice were dosed with RediJect D-Luciferin K+ salt 5 minutes prior to examination. […] Equivalent regions of interest (ROIs) were used for quantification of tumor groups.

CNC(=O)c1cc(Oc2ccc(NC(=O)Nc3ccc(Cl)c(C(F)(F)F)c3)cc2)ccn1 [crystalline sorafenib, sorafenib]
endothelial cell Cd31 expression levels (qPCR) [1]: more effectively reduced
anti-tumor efficacy (tumor luminescence in ROIs) [2]: significant anti-tumor efficacy
